Data published in ChEMBL document CHEMBL5370598, “[3H]UR-JG102-A Radiolabeled Cyclic Peptide with High Affinity and Excellent Selectivity for the Neuropeptide Y Y4 Receptor” (J Med Chem, 2023).
pKd: −log10 of the molar value.

What was measured:
[1] = biological target: T1, Neuropeptide Y receptor type 4 (Homo sapiens, UniProt P50391); assay: Binding affinity to human Y4R expressed in CHO cells co-expressing Gqi5-mtAEQ under sodium free buffer condition; format: cell-based
[2] = biological target: T1, Neuropeptide Y receptor type 4; assay: Binding affinity to human Y4R expressed in CHO cells co-expressing Gqi5-mtAEQ under DPBS condition; format: cell-based
[3] = biological target: T1, Neuropeptide Y receptor type 4; assay: Binding affinity to human Y4R expressed in CHO cells co-expressing Gqi5-mtAEQ assessed as dissociation constant under sodium free buffer condition; format: cell-based
[4] = biological target: T1, Neuropeptide Y receptor type 4; assay: Binding affinity to human Y4R expressed in CHO cells co-expressing Gqi5-mtAEQ assessed as dissociation constant preincubated for 20 mins under DPBS condition; format: cell-based
[5] = biological target: T1, Neuropeptide Y receptor type 4; assay: Binding affinity to human Y4R expressed in CHO cells co-expressing Gqi5-mtAEQ assessed as dissociation constant preincubated for 2 hrs under DPBS condition; format: cell-based
[6] = biological target: T1, Neuropeptide Y receptor type 4; assay: Binding affinity to human Y4R under 137 mM sodium condition
[7] = biological target: T1, Neuropeptide Y receptor type 4; assay: Binding affinity to human Y4R expressed in CHO cells co-expressing Gqi5-mtAEQ at 4 degreeC; format: cell-based
[8] = biological target: T1, Neuropeptide Y receptor type 4; assay: Binding affinity to human Y4R under sodium free condition
[9] = biological target: T1, Neuropeptide Y receptor type 4; assay: Binding affinity to human Y4R under 150 mM sodium condition

T1 sequence (P50391 whole entry): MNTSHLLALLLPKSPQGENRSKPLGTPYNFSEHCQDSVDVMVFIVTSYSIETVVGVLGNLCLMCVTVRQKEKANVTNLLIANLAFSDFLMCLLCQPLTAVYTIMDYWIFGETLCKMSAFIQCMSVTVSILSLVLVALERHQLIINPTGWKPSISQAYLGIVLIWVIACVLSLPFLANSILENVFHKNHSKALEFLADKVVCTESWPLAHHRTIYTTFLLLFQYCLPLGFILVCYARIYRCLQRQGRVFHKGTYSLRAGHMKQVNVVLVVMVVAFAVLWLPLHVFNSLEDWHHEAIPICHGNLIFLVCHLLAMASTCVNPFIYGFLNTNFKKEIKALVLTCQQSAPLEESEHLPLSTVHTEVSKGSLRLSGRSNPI

| pKd [1] | pKd [2] | pKd [3] | pKd [4] | pKd [5] | pKd [6] | pKd [7] | pKd [8] | pKd [9] | SMILES |
| --- | --- | --- | --- | --- | --- | --- | --- | --- | --- |
| 10.92 | 9.96 | 11.70 | 10.85 | 10.05 | 9.96 | 9.07 |  |  | [3H]CC([3H])C(=O)NCCCC(=O)N[C@@H]1CC(=O)N[C@@H](CCCNC(=N)N)C(=O)N[C@@H](Cc2ccc(O)cc2)C(=O)N[C@H](C(=O)N[C@@H](CC(C)C)C(=O)N[C@@H](CCCNC(=N)N)C(=O)N[C@@H](Cc2ccc(O)cc2)C(N)=O)CCCN/C(N)=N/C(=O)NCCCCNC1=O (some centres undefined) |
|  |  |  |  |  |  |  | 8.96 | 7.68 | [3H]CC([3H])C(=O)NCCCC[C@H](NC(=O)[C@H](CC(C)C)NC(=O)[C@@H]1CCCN1C(=O)[C@H](C)N)C(=O)N1CCC[C@H]1C(=O)N[C@H](C(=O)N[C@@H](Cc1ccc(O)cc1)C(=O)N1CCC[C@H]1C(=O)NCC(=O)N[C@@H](CC(=O)O)C(=O)N[C@@H](CC(N)=O)C(=O)N[C@@H](C)C(=O)N[C@H](C(=O)N1CCC[C@H]1C(=O)N[C@@H](CCC(=O)O)C(=O)N[C@@H](CCC(N)=O)C(=O)NC(CCCC)C(=O)N[C@@H](C)C(=O)N[C@@H](CCC(N)=O)C(=O)N[C@@H](Cc1ccc(O)cc1)C(=O)N[C@@H](C)C(=O)N[C@@H](C)C(=O)N[C@@H](CC(N)=O)C(=O)N[C@@H](CC(C)C)C(=O)N[C@@H](CCCNC(=N)N)C(=O)N[C@@H](CCCNC(=N)N)C(=O)N[C@@H](Cc1ccc(O)cc1)C(=O)N[C@H](C(=O)N[C@@H](CC(N)=O)C(=O)NC(CCCC)C(=O)N[C@@H](CC(C)C)C(=O)N[C@H](C(=O)N[C@@H](CCCNC(=N)N)C(=O)N1CCC[C@H]1C(=O)N[C@@H](CCCNC(=N)N)C(=O)N[C@@H](Cc1ccc(O)cc1)C(N)=O)[C@@H](C)O)[C@@H](C)CC)[C@@H](C)O)C(C)C (some centres undefined) |
